The test system of data set [1] is Mycobacterium tuberculosis. The data set can be described thus: In vitro minimum inhibitory concentration value against Mycobacterium tuberculosis H37Rv strain in bactec assay. It counts as functional.
The subject of data set [2] is Mycobacterium tuberculosis. Nature of the data set: In vitro actual minimum inhibitory concentration value against Mycobacterium tuberculosis. It counts as functional.
Data set [3] relates to Mycobacterium tuberculosis. The data set can be described thus: In vitro minimum inhibitory concentration value against Mycobacterium tuberculosis H37Rv strain in alamar assay. It counts as functional.
Data set [4] has as its system Mycobacterium tuberculosis. Nature of the data set: In vitro minimum inhibitory concentration value against Mycobacterium tuberculosis erdman strain in alamar assay. Format: functional.
In data set [5] the test system is Mycobacterium tuberculosis. The data set can be described thus: In vitro effective concentration of the compound causing 99%reduction in residualmycobacterium tuberculosis growth after 7 days compared to untreated control. To be noted: 168 h. Format: functional.
A short description of data set [6]: Compound was tested for cytotoxicity in Vero cells. To be noted: Chlorocebus sabaeus. Format: cell-based.
Data set [7] can be described thus: Selectivity index (ratio of IC50 and MIC) value was determined. To be noted: cercopithecidae.
Data set [8] concerns Mycobacterium tuberculosis. The data set can be described thus: In vitro effective concentration of the compound causing 90%reduction in residualmycobacterium tuberculosis growth after 7 days compared to untreated control. Format: functional. Particulars: 168 h.
Data set [9] has as its system Mycobacterium tuberculosis. Nature of the data set: In vitro ratio of EC90 and MIC value of the compound was determined. It counts as functional.
Data set [10] concerns Mycobacterium tuberculosis. The data set can be described thus: In vitro actual minimum inhibitory concentration value of the compound was determined against Mycobacterium tuberculosis. It counts as functional.
Data set [11] concerns Mycobacterium tuberculosis. The data set can be described thus: In vitro actual minimum inhibitory concentration value of the compound was determined against Mycobacterium tuberculosis H37Rv strain; Range is 0.015-0.125. It counts as functional.
Data set [12] in a line: Compound was tested for cytotoxicity in Vero cells; Insoluble. It counts as cell-based, Chlorocebus sabaeus.

In brackets after ≈: the same amount, converted by molar mass.

With `COC(=O)c1c(Cc2ccccc2)[n+]([O-])c2cc(Cl)c(Cl)cc2[n+]1[O-]`, the MIC in data set [1] was 6.25 µg/mL (≈ 16.5 µM); in data set [2], 6.25 µg/mL (≈ 16.5 µM); in [3] it was at most 3.13 µg/mL; in data set [4], at most 3.13 µg/mL.
Consider `COC(=O)c1c(Cc2ccccc2)[n+]([O-])c2ccccc2[n+]1[O-]`, for which the EC99 in data set [5] was over 2 µg/mL. This compound displayed an IC50 in [6] of 47 µg/mL (≈ 151 µM). In data set [7], the SI was determined as 470. The compound also showed an EC90 in data set [8] of 0.15 µg/mL (≈ 0.483 µM). Also, the Ratio in data set [9] was found to be 1.5. Besides, the MIC in data set [10] was determined as 0.1 µg/mL (≈ 0.322 µM).
The compound `COC(=O)c1c(C)[n+]([O-])c2ccccc2[n+]1[O-]` displayed an IC50 in data set [6] of over 10 µg/mL. In [7], the SI is over 6.41. In addition, the MIC in data set [10] was 1.56 µg/mL (≈ 6.66 µM).
In data set [10], `C=CCc1c(C(=O)OC)[n+]([O-])c2cc(C)c(C)cc2[n+]1[O-]` displayed an MIC of over 6.25 µg/mL.
Consider `CCOC(=O)COC(=O)c1c(CC)[n+]([O-])c2ccc(Cl)cc2[n+]1[O-]`, for which, in data set [6], half-maximal inhibition (IC50) required 1.89 µg/mL (≈ 5.33 µM). Moreover, the SI in [7] was 1.2. The compound also came in with an MIC in [10] of 1.56 µg/mL (≈ 4.4 µM).
In data set [5], `COC(=O)c1c(C)[n+]([O-])c2ccc(C)cc2[n+]1[O-]` gave an EC99 of 5.83 µg/mL. For the same compound, the IC50 in data set [6] was over 62.5 µg/mL. In addition, in data set [7], the SI was over 40.1. For the same compound, in data set [8], the EC90 was determined as 1.94 µg/mL (≈ 7.82 µM). Also, in data set [9], the Ratio is 1.24. Also, in data set [10], the MIC worked out at 1.56 µg/mL (≈ 6.28 µM).
With `CCOC(=O)COC(=O)c1c(CC)[n+]([O-])c2cc(Cl)c(Cl)cc2[n+]1[O-]`, 1.22 µg/mL (≈ 3.13 µM) corresponded to half-maximal inhibition in data set [6] (IC50). For the same compound, in data set [7], the SI stood at 6.1. In addition, the MIC in [10] was 0.2 µg/mL (≈ 0.514 µM).
On the same counts, the results for `COC(=O)c1c(C)[n+]([O-])c2cc(Cl)c(Cl)cc2[n+]1[O-]` are 1.68 µg/mL (≈ 5.54 µM), 8.4 and 0.2 µg/mL (≈ 0.66 µM).
In [6], `COC(=O)c1c(Cc2ccccc2)[n+]([O-])c2ccc(OC)cc2[n+]1[O-]` showed an IC50 of over 62.5 µg/mL. Further, the SI in data set [7] was over 80.1. This compound also yielded an MIC in data set [10] of 0.78 µg/mL (≈ 2.29 µM).
In data set [11], `CO[C@H]1/C=C/O[C@@]2(C)Oc3c(C)c(O)c4c(O)c(c(/C=N/N5CCN(C)CC5)c(O)c4c3C2=O)NC(=O)/C(C)=C\C=C\[C@H](C)[C@H](O)[C@@H](C)[C@@H](O)[C@@H](C)[C@H](OC(C)=O)[C@@H]1C` [RIFAMPIN] displayed an MIC of 0.125 µg/mL (≈ 0.152 µM).
`COC(=O)c1c(Cc2ccccc2)[n+]([O-])c2ccc(Cl)cc2[n+]1[O-]` yielded an EC99 in data set [5] of 0.08 µg/mL. In addition, the IC50 in data set [6] was found to be 7.6 µg/mL (≈ 22 µM). Further, the SI in data set [7] was determined as 76. The same compound gave an EC90 in data set [8] of 0.0005 µg/mL (≈ 0.00145 µM). In addition, the Ratio in data set [9] is 0.01. The compound also had an MIC in data set [10] of 0.1 µg/mL (≈ 0.29 µM).
In data set [6], `COC(=O)c1c(C)[n+]([O-])c2ccc(OC)cc2[n+]1[O-]` returned an IC50 of 52.6 µg/mL (≈ 199 µM). In addition, in data set [7], the SI came to 33.7. In addition, the MIC in data set [10] worked out at 1.56 µg/mL (≈ 5.9 µM).
With `COC(=O)c1c(Cc2ccccc2)[n+]([O-])c2cc(F)c(F)cc2[n+]1[O-]`, the MIC in data set [10] is over 6.25 µg/mL.
Take `COC(=O)c1c(Cc2ccccc2)[n+]([O-])c2ccc(C)cc2[n+]1[O-]`: it took 3.79 µg/mL to reach the 99% level in data set [5] (EC99). For the same compound, in data set [6], it took 56 µg/mL (≈ 173 µM) to reach half-maximal inhibition (IC50). Moreover, the SI in [7] came to 144. This compound came in with an EC90 in data set [8] of 1.13 µg/mL (≈ 3.48 µM). Further, the Ratio in data set [9] is on record as 2.9. In data set [10], this compound had a minimum inhibitory concentration (MIC) of 0.39 µg/mL (≈ 1.2 µM).
In data set [6], `CCc1c(C(=O)OC)[n+]([O-])c2cc(F)c(F)cc2[n+]1[O-]` came in with an IC50 of 1.2 µg/mL (≈ 4.22 µM). Moreover, the SI in data set [7] is 0.77. This compound also had an MIC in data set [10] of 1.56 µg/mL (≈ 5.49 µM).
Consider `CCc1c(C(=O)OC)[n+]([O-])c2cc(Cl)ccc2[n+]1[O-]`, for which, in data set [5], the 99% effect level (EC99) was put at 1.14 µg/mL. Moreover, the IC50 in [6] is over 10 µg/mL. In [7], the SI was over 50. Moreover, in [8], the EC90 came to 0.46 µg/mL (≈ 1.63 µM). Besides, the Ratio in [9] amounted to 2.3. Besides, in [10], the MIC turned out to be 0.2 µg/mL (≈ 0.708 µM).
In the case of `COC(=O)c1c(Cc2ccccc2)[n+]([O-])c2cc(C)c(C)cc2[n+]1[O-]`, the IC50 entry in [12] is on record as “Insoluble”. The compound further displayed an MIC in [10] of 3.13 µg/mL (≈ 9.25 µM).
In turn, `COC(=O)c1c(C(C)(C)C)[n+]([O-])c2cc(Cl)c(Cl)cc2[n+]1[O-]` displayed an MIC in [10] of over 6.25 µg/mL.
For the compound `CCc1c(C(=O)OC)[n+]([O-])c2cc(OC)ccc2[n+]1[O-]`, in data set [6], the IC50 was 39.9 µg/mL (≈ 144 µM). In addition, in data set [7], the SI came to 6.4. The compound further registered an MIC in [10] of 6.25 µg/mL (≈ 22.5 µM).
Turning to `CCc1c(C(=O)OC)[n+]([O-])c2cc(C)c(C)cc2[n+]1[O-]`, the MIC in data set [1] amounted to 0.2 µg/mL (≈ 0.724 µM); in [3], 0.39 µg/mL (≈ 1.41 µM); in [4] it was 0.39 µg/mL (≈ 1.41 µM); in data set [10] it was 6.25 µg/mL (≈ 22.6 µM). The IC50 in [6] is over 62.5 µg/mL. Moreover, the SI in data set [7] is over 10.
In turn, `COC(=O)c1c(C(C)(C)C)[n+]([O-])c2cc(C)c(C)cc2[n+]1[O-]` returned an MIC in data set [10] of over 6.25 µg/mL.
As for `CCc1c(C(=O)OC)[n+]([O-])c2cc(C)ccc2[n+]1[O-]`, in [6], the IC50 was over 62.5 µg/mL. For the same compound, the SI in [7] is over 40.1. Also, in data set [10], the MIC stood at 1.56 µg/mL (≈ 5.95 µM).
For the compound `COC(=O)c1c(C)[n+]([O-])c2cc(C)c(C)cc2[n+]1[O-]`, the EC99 in data set [5] is 6.15 µg/mL. The compound further showed a concentration for half-maximal inhibition (IC50) in data set [6] of over 62.5 µg/mL. Moreover, the SI in [7] is over 20. In [8], the EC90 came to 1.64 µg/mL (≈ 6.25 µM). The Ratio in data set [9] was 0.52. This compound displayed an MIC in [10] of 3.13 µg/mL (≈ 11.9 µM).
In data set [6], `C=CCc1c(C(=O)OC)[n+]([O-])c2cc(Cl)c(Cl)cc2[n+]1[O-]` yielded an IC50 of 5.8 µg/mL (≈ 17.6 µM). In data set [7], the SI came out at 0.93. Inhibition of growth in [10] (MIC) required 6.25 µg/mL (≈ 19 µM).
In turn, `COC(=O)c1c(C(C)(C)C)[n+]([O-])c2ccc(Cl)cc2[n+]1[O-]` returned an MIC in [10] of over 6.25 µg/mL.
In [5], `CCc1c(C(=O)OC)[n+]([O-])c2cc(Cl)c(Cl)cc2[n+]1[O-]` yielded an EC99 of 5.99 µg/mL. Also, in data set [6], the IC50 stood at 4 µg/mL (≈ 12.6 µM). In addition, the SI in [7] is over 20. This compound yielded an EC90 in data set [8] of 0.63 µg/mL (≈ 1.99 µM). In addition, the Ratio in data set [9] is over 3.15. The MIC in data set [10] was under 0.2 µg/mL.
With `COC(=O)c1c(C)[n+]([O-])c2cc(F)c(F)cc2[n+]1[O-]`, in data set [6], the IC50 was 1.48 µg/mL (≈ 5.48 µM). In addition, the SI in data set [7] was 3.8. Moreover, the MIC in data set [10] was determined as 0.39 µg/mL (≈ 1.44 µM).
As to `COC(=O)c1c(C(C)(C)C)[n+]([O-])c2ccccc2[n+]1[O-]`, the MIC in data set [10] is over 6.25 µg/mL.
In the case of `COCCc1c(C(=O)OC)[n+]([O-])c2cc(Cl)c(Cl)cc2[n+]1[O-]`, the EC99 in [5] is over 1.56 µg/mL. The same compound showed an IC50 in [6] of 4.5 µg/mL (≈ 13 µM). In [7], the SI came out at 11.5. For the same compound, the EC90 in data set [8] was over 1.56 µg/mL. Moreover, the Ratio in data set [9] was over 4. Moreover, in data set [10], the MIC was 0.39 µg/mL (≈ 1.12 µM).
In turn, `CCc1c(C(=O)OC)[n+]([O-])c2ccccc2[n+]1[O-]` showed an EC99 in data set [5] of 3.32 µg/mL. Besides, half-maximal inhibition in data set [6] (IC50) required 47 µg/mL (≈ 189 µM). Moreover, the SI in data set [7] amounted to 30.1. The compound further showed an EC90 in data set [8] of 0.88 µg/mL (≈ 3.54 µM). Also, the Ratio in [9] was found to be 0.56. For the same compound, the MIC in data set [10] was 1.56 µg/mL (≈ 6.28 µM).

In general, MIC refers to the lowest concentration that inhibits growth of the organism. A high value points to weaker potency. For orientation: EC99 means the concentration needed for an effect of 99%. Low values mean greater potency, high ones weaker potency. A word on the IC50: it is the midpoint of a concentration-inhibition curve. A higher IC50 goes with lower potency. Usually EC90 stands for the concentration needed for an effect of 90%. High values mean weaker potency, low ones greater potency.

These data come from ChEMBL document CHEMBL1144409, “Synthesis of new quinoxaline-2-carboxylate 1,4-dioxide derivatives as anti-Mycobacterium tuberculosis agents” (J Med Chem, 2005).
